The text below walks through data of patent publication US20250129101A1, “Compound, Pharmaceutical Composition Comprising the Same and Method for Treating Cancer Using the Same” (NATIONAL TSING HUA UNIVERSITY, priority 2023, published 2025).

Usually EC50 stands for the concentration at which the effect is half-maximal. Low readings indicate higher potency in that assay, high ones lower potency in that assay. In general, IC50 refers to the concentration at which inhibition is half-maximal.

The target in test [1] is T1, KIF2C (Homo sapiens, UniProt Q99661).
T1 construct: KIF2C (216-598 a.a.); 6xHis (C); made in house; host or cells: E. coli BL21 (DE3), pET-28a
T1 sequence (Q99661 216-598): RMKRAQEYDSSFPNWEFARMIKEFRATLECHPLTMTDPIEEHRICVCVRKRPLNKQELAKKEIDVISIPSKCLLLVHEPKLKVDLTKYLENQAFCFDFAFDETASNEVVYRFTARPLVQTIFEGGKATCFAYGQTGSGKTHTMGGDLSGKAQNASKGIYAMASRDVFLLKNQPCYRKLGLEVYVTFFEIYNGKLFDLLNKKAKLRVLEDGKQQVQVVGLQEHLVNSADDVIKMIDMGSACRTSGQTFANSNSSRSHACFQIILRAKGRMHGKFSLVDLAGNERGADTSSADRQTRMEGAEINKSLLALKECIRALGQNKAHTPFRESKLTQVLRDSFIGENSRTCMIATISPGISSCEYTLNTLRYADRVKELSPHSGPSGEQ
The test is described as follows: In vitro validation: KIF2C kinesin activity, malachite green-based phosphate colorimetric assay. It is filed as biochemical. An outline of the steps: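 KIF2C sN+M construct (aa 216-598, C-terminal 6×His, E. coli-expressed) ATPase activity with microtubules from porcine brain tubulin or HEK293 (293Fs) cells in BRB80 (80 mM PIPES pH 6.8, 1 mM GTP, 10% DMSO), 37° C for 2 hr. Released phosphate detected by malachite green reagent, 10 min, A650.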

For test [2], the system named is MDA-MB-231 R, MDA-MB-231 S, 4T1 S1, R4, and R8 cells. The test is described as follows: Cell viability of indicated cell lines, DHTP or 7S9 for 72 hr. Particulars: Homo sapiens, range over MDA-MB-231 R, read-out: cytotoxicity IC50 values. In kind it is cell-based. How it is done:
The cancer cells were cultured in a 96-well plate at a confluence of 1000-2000 cells/well with indicated drugs for specific days. When the time was up, the culture medium in the plate was aspirated and replaced with a prepared CellTiter-Glo reagent/DMEM mixture (1:1 mix of CellTiter-Glo reagent and serum-supplemented DMEM). After incubation for 10 min, the luminescence (proportional to the number of living cells) was measured with an ELISA plate reader to determine the cell viability.

For test [3], the target named is T1, KIF2C. Description: In vitro microtubule depolymerization assay. Particulars: 50 μM 7S9, recombinant KIF2C and ATP, 30 min. In kind it is biochemical. How it is done: Additional purified KIF2C (0.5 ng/μl), ATP (0.75 mM), and 7S9 (50 μM) were included in a typical 10 μL reaction, as indicated, loaded onto a p-Slide (Ibidi, 81506) and incubated at 37° C. for 30 min. Images were acquired using the Leica DMI6000 microscope with an HCX PL FL 20×/0.4 and Andor Neo sCMOS camera, which were all processed by MetaMorph software (Molecular Devices, LLC. San Jose, CA, USA).

The target in test [4] is T2, KIF2C and tubulin (Homo sapiens, UniProt Q99661).
T2 construct: KIF2C (216-598 a.a.); made in house; host or cells: E. coli BL21 (DE3), pET-28a (KIF2C); tubulin from porcine brain (Cytoskeleton) or HEK293 cells
T2 sequence (Q99661 216-598): as above
Description: KIF2C-tubulin affinity pull-down assay. It is filed as binding. How it is done:
The mixture was subjected to KIF2C pull-down with 50 μL of pre-equilibrated Ni-NTA resin. Residual tubulin that remained interacting with KIF2C was resolved by SDS-PAGE followed by Coomassie brilliant blue staining or western blotting.

Test [5] relates to 4T1 R8. Description: In vivo tumor growth inhibition, 4T1 R8 syngeneic model. Set-up: species or system mouse. Particulars: R8 tumors, BALB/c mice, 7S9 50 mg/kg with paclitaxel 15 mg/kg. How it is done: The mice were housed at the National Health Research Institute (NHRI) Animal Center in accordance with the Institutional Animal Care and Use Committee procedures and guidelines. The 4T1-derived cells, including 4T1, 4T1 R4, and 4T1 R8, used for implantation were harvested during log phase growth and resuspended in phosphate-buffered saline. Each mouse was injected s.c. in the right flank with 5×10^5 cells. After tumor size reached 60-100 mm 3 (D1), mice were divided into groups and received treatment with vehicle or different compounds alone or in combinations. Tumor size, in mm 3, was measured twice per week and calculated from Tumor volume=(w 2×1)/2, where w=width and 1=length in mm of the tumor. The values of tumor size were expressed as mean±SEM.

Bounds are passed on as bounds.

As for `CCN1CCN(C(=O)COc2ccc(/C=c3\sc4n(c3=O)C(c3ccc(Cl)cc3)C(C(=O)OC(C)C)=C(C)N=4)cc2)CC1.O=C(O)/C=C\C(=O)O` (centres unmarked) [7S9 (133), isopropyl (Z)-5-(4-chlorophenyl)-2-(4-(2-(4-ethylpiperazin-1-yl)-2-oxoethoxy)benzylidene)-7-methyl-3-oxo-2,3-dihydro-5H-thiazolo[3,2-a]pyrimidine-6-carboxylate maleate], in test [1] (50 μM (FIG. 4I)), the “inhibitory effect against KIF2C (in words)” value is on record as “selective inhibition against KIF2C”. Also, the “KIF2C activity in the presence of paclitaxel (in words)” value in test [1] (100 μM 7S9, 1 μM paclitaxel) is “could successfully inhibit KIF2C activity in the presence of paclitaxel”. The “inhibition of KIF2C kinesin activity (in words)” value in test [1] (100 μM (FIG. 4B)) is reported as “most potent inhibitor of KIF2C”. Further, the EC50 in test [1] (concentration that inhibits 50% of KIF2C activity) was under 50 µM. In test [2], the IC50 lay within 4.9 to 8.6 µM. In addition, in test [3], the “KIF2C-mediated microtubule depolymerization (in words)” value is given as “completely blocked”. Further, the “molecular interaction between KIF2C and tubulin (in words)” value in test [4] is recorded as “increased by 7S9 in a dose-dependent manner”. In addition, the “tumor growth inhibition, combination” value in test [5] is on record as 66.2%.
